Test results as given in PMC5527824 (Frontiers in bioscience (Scholar edition), 2015).
Values joined by “and” are separate entries in the source; they are usually repeats but may differ in a detail not shown here. Identical values can stand only once. Like-named read-outs stand apart in the source and are kept apart here.

Key:
PC12 cells = conditions: of ~30 flavonoids tested; cited from earlier work
nerve cell = conditions: of ~30 flavonoids tested; cited from earlier work
[1] = cited from earlier work
[2] = tested on: BV-2 microglial cell line; conditions: BV-2 cells; cited from earlier work
tMCAO in mice [3] = conditions: cited from earlier work
monoamine oxidase A = conditions: stated as possible mechanism; cited from earlier work
Aβ = conditions: cell-free assay system; cited from earlier work
[4] = tested on: rodent model of depression; conditions: oral administration; cited from earlier work
5-LOX = conditions: stimulated peritoneal leukocytes; cited from earlier work
[5] = tested on: mouse HT22 hippocampal nerve cell line; conditions: read-out: EC50, protection from IAA-induced death; HT22 cells; cited from earlier work
[6] = pharmacokinetics in mice, oral; type: in vivo, mouse; conditions: oral 50 mg/kg bw, unpublished results
15-LOX = conditions: rabbit reticulocytes; cited from earlier work
[7] = molecular target: 5-LOX from human peripheral blood mononuclear leukocytes (PBML) (Homo sapiens, UniProt P09917); experiment: 5-LOX inhibition; type: biochemical; conditions: Fisetin IC50, 5-LOX
Chain of 5-LOX from human peripheral blood mononuclear leukocytes (PBML) (P09917 whole entry): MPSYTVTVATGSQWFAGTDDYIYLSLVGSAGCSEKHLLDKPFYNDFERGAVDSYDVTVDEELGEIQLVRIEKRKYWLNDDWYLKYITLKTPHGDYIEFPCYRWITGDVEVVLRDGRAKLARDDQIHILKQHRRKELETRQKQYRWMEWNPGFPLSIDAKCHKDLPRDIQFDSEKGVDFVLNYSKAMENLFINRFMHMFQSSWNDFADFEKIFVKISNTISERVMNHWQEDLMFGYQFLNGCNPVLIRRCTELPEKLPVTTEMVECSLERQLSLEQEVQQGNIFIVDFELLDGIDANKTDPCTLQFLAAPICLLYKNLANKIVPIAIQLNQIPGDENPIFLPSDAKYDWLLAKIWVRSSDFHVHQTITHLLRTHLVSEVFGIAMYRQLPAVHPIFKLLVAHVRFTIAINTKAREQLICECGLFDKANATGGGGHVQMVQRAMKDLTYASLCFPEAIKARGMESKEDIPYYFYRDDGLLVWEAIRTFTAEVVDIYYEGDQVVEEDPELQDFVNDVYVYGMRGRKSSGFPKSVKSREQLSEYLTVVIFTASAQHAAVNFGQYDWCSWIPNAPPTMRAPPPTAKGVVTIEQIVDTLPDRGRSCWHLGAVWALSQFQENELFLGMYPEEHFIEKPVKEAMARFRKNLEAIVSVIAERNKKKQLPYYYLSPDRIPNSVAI

cytochrome P450 2C9 = cytochrome P450 2C9 (Homo sapiens, UniProt P11712); experiment: cytochrome P450 2C9 inhibition; type: in vitro ADME; conditions: at concentrations up to 10 μM; unpublished results
Chain of cytochrome P450 2C9 (P11712 whole entry): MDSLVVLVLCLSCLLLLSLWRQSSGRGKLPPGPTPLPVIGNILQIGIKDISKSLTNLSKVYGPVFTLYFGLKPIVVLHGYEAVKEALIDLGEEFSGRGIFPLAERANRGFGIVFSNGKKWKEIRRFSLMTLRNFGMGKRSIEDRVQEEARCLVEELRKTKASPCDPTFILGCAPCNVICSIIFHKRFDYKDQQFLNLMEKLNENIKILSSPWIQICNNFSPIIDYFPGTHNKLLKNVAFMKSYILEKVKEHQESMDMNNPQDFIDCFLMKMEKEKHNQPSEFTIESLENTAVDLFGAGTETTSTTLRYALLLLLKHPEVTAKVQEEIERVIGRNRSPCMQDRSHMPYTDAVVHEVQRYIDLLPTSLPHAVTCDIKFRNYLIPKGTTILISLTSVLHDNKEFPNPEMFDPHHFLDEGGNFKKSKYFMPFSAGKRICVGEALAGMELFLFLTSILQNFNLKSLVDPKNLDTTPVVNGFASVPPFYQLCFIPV

proteasome = conditions: cited from earlier work
[8] = tested on: scopolamine-induced memory impairment in mice; conditions: cited from earlier work
[9] = test tube assays; cited from earlier work
cytochrome P450 2D6 = cytochrome P450 2D6 (Homo sapiens, UniProt P10635); experiment: cytochrome P450 2D6 inhibition; type: in vitro ADME; conditions: at concentrations up to 10 μM; unpublished results
Chain of cytochrome P450 2D6 (P10635 whole entry): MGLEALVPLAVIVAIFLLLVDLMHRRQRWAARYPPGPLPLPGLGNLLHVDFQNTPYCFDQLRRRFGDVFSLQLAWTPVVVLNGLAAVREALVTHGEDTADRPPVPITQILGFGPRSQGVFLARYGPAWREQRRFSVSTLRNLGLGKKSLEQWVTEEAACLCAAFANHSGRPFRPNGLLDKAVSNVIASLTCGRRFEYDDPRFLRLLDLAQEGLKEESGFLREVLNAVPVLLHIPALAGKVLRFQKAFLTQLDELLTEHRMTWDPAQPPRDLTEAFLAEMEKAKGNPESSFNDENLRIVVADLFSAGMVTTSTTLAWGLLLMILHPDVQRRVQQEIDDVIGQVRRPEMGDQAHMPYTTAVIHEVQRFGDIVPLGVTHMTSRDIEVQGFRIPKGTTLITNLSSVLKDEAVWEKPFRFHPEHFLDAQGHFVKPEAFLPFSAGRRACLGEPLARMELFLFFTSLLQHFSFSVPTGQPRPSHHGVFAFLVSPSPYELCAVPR

[10] = tested on: APPswe/PS1dE9 double transgenic AD mice; conditions: 0.05% in food, cited from earlier work
liver microsomes = conditions: ferrous sulfate/ascorbate; cited from earlier work
[11] = molecular target: 15-LOX from rabbit reticulocytes (Oryctolagus cuniculus, UniProt P12530); experiment: 15-LOX inhibition; conditions: Fisetin IC50, 15-LOX
Chain of 15-LOX from rabbit reticulocytes (P12530 whole entry): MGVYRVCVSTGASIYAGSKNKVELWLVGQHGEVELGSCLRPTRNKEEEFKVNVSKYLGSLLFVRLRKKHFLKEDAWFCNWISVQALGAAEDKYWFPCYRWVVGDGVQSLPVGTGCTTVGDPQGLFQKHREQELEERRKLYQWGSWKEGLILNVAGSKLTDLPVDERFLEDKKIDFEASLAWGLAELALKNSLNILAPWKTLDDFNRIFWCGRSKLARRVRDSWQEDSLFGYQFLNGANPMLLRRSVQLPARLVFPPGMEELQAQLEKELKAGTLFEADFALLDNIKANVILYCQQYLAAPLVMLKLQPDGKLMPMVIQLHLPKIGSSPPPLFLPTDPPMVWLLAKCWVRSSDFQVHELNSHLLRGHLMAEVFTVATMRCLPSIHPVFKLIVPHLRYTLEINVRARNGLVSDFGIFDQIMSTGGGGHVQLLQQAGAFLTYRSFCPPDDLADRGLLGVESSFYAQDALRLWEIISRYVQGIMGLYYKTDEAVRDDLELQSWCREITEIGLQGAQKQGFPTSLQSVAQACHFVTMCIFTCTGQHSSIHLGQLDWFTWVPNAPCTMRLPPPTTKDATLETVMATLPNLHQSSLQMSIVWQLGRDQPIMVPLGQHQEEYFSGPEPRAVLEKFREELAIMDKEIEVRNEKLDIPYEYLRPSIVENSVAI

[12] = tested on: mouse hippocampal HT22 cells; conditions: cited from earlier work
RAW264.7 macrophages = conditions: RAW264.7, via increased MKP-1 levels; cited from earlier work
[13] = tested on: APPswe/PS1dE9 double transgenic AD mice; conditions: cited from earlier work
[14] = mouse, intravenous 223 mg/kg bw; cited from earlier work
12-LOX = conditions: fish gill; cited from earlier work
[15] = rats, intravenous and oral administration; cited from earlier work
Akita mice [16] = experiment: Ins2^Akita mouse model of type 1 diabetes; type: in vivo; conditions: 0.05% in diet for 18 weeks
HT22 cells = conditions: cited from earlier work
Nrf2 = conditions: basal half-life ~15 min; cited from earlier work
PC12/Htt^Q103 cells = conditions: 10 μM, 24 hr after induction of Httex1-103QP; cited from earlier work
[17] = tested on: rodent model of depression; conditions: oral administration; cited from earlier work; remark: listed apart in the source
tMCAO in mice [18] = conditions: cited from earlier work; for intracellular TNF-α production in macrophages / TNF-α–producing microglia: brain
R6/2 mouse = conditions: R6/2 mice, cited from earlier work
[19] = tested on: human lung adenocarcinoma cell line H1299; conditions: H1299 cells; cited from earlier work
COX2 (Human recombinant) = COX2 (Human recombinant) (Homo sapiens, UniProt P35354); experiment: COX2 inhibition; type: biochemical
Chain of COX2 (Human recombinant) (P35354 18-604): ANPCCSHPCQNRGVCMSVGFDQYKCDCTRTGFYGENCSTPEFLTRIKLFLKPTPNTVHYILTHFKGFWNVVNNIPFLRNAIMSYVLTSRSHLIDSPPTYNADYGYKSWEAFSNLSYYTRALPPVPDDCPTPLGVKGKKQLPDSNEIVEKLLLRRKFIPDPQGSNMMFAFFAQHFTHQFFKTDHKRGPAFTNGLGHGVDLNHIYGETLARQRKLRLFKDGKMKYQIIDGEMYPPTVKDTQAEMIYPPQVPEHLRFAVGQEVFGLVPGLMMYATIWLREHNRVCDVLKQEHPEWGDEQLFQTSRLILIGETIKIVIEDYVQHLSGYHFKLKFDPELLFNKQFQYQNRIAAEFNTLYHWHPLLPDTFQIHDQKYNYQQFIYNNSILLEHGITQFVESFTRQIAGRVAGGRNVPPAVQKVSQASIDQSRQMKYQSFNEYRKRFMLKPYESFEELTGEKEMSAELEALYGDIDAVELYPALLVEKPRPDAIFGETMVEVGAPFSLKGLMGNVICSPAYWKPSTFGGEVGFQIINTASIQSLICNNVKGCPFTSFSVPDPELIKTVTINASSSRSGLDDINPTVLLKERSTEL

[20] = 0.05% in diet for 9 months (~25 mg/kg bw), vs control; cited from earlier work
Akita mice [21] = conditions: cited from earlier work
ATF4 = conditions: basal half-life ~10 min; cited from earlier work
[22] = tested on: mouse N9 microglial cells; conditions: cited from earlier work
[23] = tested on: NF-κB coactivator CBP/p300; conditions: human monocytes; cited from earlier work
COX1 (Human platelets) = COX1 (Human platelets) (Homo sapiens, UniProt P23219); experiment: COX1 inhibition; type: biochemical
hERG = hERG (Homo sapiens, UniProt Q12809); experiment: hERG activity; conditions: at concentrations up to 10 μM, the highest concentration tested; unpublished results
Chain of hERG (Q12809 whole entry): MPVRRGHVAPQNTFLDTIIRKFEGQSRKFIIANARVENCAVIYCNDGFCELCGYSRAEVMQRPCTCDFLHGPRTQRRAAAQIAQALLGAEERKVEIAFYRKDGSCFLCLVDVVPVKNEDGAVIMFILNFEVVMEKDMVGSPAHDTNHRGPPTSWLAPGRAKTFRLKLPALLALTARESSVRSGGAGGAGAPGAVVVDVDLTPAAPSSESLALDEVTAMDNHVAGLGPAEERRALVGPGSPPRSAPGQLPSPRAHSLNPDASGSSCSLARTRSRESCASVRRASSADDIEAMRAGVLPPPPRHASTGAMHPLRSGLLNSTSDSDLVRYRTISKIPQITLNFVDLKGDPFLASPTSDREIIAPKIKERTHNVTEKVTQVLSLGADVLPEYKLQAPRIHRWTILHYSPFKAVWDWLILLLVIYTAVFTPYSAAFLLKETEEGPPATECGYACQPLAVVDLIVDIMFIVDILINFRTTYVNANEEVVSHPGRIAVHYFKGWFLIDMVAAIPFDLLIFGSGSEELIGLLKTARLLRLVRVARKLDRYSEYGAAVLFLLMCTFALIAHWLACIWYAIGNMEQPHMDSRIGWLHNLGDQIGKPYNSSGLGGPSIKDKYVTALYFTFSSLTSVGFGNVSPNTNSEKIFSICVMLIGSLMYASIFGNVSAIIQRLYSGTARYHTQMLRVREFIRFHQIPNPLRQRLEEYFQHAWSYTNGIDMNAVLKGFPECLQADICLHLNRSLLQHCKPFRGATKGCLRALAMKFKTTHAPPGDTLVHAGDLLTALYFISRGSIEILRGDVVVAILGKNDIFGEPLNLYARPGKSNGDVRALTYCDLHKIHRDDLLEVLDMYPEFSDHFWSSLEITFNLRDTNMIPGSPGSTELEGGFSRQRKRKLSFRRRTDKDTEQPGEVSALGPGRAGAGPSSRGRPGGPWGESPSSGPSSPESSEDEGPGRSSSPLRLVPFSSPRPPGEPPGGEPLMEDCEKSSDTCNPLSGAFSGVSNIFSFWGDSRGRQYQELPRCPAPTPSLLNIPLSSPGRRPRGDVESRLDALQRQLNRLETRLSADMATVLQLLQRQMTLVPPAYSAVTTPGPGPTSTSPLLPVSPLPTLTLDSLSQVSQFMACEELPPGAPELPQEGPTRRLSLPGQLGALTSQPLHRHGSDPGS

[24] = tested on: APPswe/PS1dE9 double transgenic AD mice; conditions: AD mice 12 months of age, 0.05% in food; cited from earlier work
cytochrome P450 3A4 = cytochrome P450 3A4 (Homo sapiens, UniProt P08684); experiment: cytochrome P450 3A4 inhibition; type: in vitro ADME; conditions: at concentrations up to 10 μM; unpublished results
Chain of cytochrome P450 3A4 (P08684 whole entry): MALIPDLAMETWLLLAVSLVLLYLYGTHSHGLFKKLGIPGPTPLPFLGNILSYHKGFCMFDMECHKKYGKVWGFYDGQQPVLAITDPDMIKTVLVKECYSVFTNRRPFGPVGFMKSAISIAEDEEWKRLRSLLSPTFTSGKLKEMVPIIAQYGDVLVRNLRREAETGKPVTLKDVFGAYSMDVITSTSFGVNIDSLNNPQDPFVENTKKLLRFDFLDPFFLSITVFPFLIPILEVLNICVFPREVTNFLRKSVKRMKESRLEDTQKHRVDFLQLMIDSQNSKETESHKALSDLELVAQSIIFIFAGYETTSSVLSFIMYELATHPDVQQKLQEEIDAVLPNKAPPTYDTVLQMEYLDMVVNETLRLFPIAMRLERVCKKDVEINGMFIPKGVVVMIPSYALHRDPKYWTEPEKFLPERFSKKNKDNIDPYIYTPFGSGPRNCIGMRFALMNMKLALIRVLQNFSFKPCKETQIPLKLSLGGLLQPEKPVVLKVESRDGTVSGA

[25] = cited from earlier work; remark: listed apart in the source
[26] = short-term toxicity study in mice; type: in vivo; conditions: oral 2000 mg/kg bw, examined for 48 hr, outside laboratory
[27] = tested on: aluminum chloride toxicity in mice; conditions: oral 15 mg/kg bw; cited from earlier work
[28] = tested on: APPswe/PS1dE9 double transgenic AD mice; conditions: AD mice 12 months of age, 0.05% in food; cited from earlier work; remark: listed apart in the source
[29] = cited from earlier work; remark: listed apart in the source
[30] = rat, in vivo, po; cited from earlier work

O=c1c(O)c(-c2ccc(O)c(O)c2)oc2cc(O)cc(O)c12 [quercetin, reference compound]
differentiation of PC12 cells (neurotrophic activity) (PC12 cells): some differentiation-inducing activity | maintenance of GSH levels in the presence of oxidative stress (nerve cell): able to maintain GSH levels

O=c1cc(-c2ccc(O)c(O)c2)oc2cc(O)cc(O)c12 [luteolin]
differentiation of PC12 cells (neurotrophic activity) (PC12 cells): some differentiation-inducing activity

O=c1c(O)c(-c2ccc(O)c(O)c2)oc2cc(O)ccc12 [fisetin, 3,3′,4′,7-tetrahydroxyflavone]
chelation of iron [1]: efficient chelation | LPS-induced nitric oxide production, TNF-α, PGE2 and iNOS/COX2 expression [2]: blocked | infarct size (tMCAO in mice [3]; 25 mg/kg i.p. 20 min before onset of ischemia, placebo 56 μl): 49 µL | infarct size (tMCAO in mice [3]; 50 mg/kg i.p. 20 min before onset of ischemia, placebo 56 μl): 30 µL | infarct size (tMCAO in mice [3]; 50 mg/kg i.p. three hours after onset of ischemia, placebo 42 μl): 27 µL | inhibition of monoamine oxidase A (monoamine oxidase A): mild inhibition | Aβ fibril formation (Aβ): inhibit Aβ fibril formation | most effective dose at reducing immobility time [4]: 20 mg/kg bw | differentiation of PC12 cells (neurotrophic activity) (PC12 cells): promoting the differentiation of PC12 cells | inhibition of 5-LOX activity (5-LOX): effective inhibitor | EC50 [5]: 3000 nM | half-life of free fisetin [6]: very short half-life | inhibition of 15-LOX activity (15-LOX): effective inhibitor | IC50 [7]: 585 nM and 580 nM | inhibition of cytochrome P450 2C9 activity (cytochrome P450 2C9): no inhibitory effects | proteasome activity (proteasome): increase proteasome activity | loss of total GSH from the cortex ([8]; scopolamine-treated mice): prevent the loss of total GSH | rescue of memory deficit induced by scopolamine ([8]; single oral dose of 40 mg/kg bw): as effective as donepezil | concentration at which pro-oxidant effects are seen [9]: ≥ 50 µM | inhibition of cytochrome P450 2D6 activity (cytochrome P450 2D6): no inhibitory effects | swim speeds [10]: no effect | MWM probe test, memory (time in platform quadrant) ([10]; AD mice 9 months of age): clear evidence of memory improvement | concentration decreasing lipid peroxidation (liver microsomes): 1.35 µM | IC50 [11]: 341 nM and 340 nM | reduction in the ability of fisetin to maintain cellular GSH levels ([12]; siRNA to ATF4, basal and glutamate-induced oxidative stress conditions): ~ 50% | effect of Nrf2 reduction on the ability of fisetin to maintain GSH levels ([12]; siRNA to Nrf2, basal conditions): no effect | reduction in the ability of fisetin to maintain GSH ([12]; siRNA to Nrf2, in the presence of oxidative stress): ~ 30% | p38 MAPK and JNK activation (RAW264.7 macrophages): suppresses | production of PGD2, PGJ2 and 15d-PGD2 ([13]; AD mice study): increased production | ERK phosphorylation in the hippocampus ([13]; AD mice treated with fisetin): increases in ERK phosphorylation | AD-increased production of thromboxanes TXB1 and TXB2 ([13]; AD mice, 0.05% in food): partly prevented | astrocyte area and intensity of GFAP staining in hippocampus ([13]; AD mice, 0.05% in food): largely reversed | brain levels of 5-HETE and 12-HETE ([13]; AD mice): significantly reduce | Aβ1–40 level in RIPA soluble fraction of hippocampus ([13]; ELISA, Aβ1–42 not reduced): significantly reduce | Aβ plaque loads in brain sections ([13]; fisetin-fed vs control AD mice): No significant differences | t1/2 of free fisetin in serum [14]: 3.12 h | inhibition of 12-LOX activity (12-LOX): effective inhibitor | t1/2 of free fisetin in serum [15]: 2.7 min | decrease in motor nerve conduction velocity (Akita mice [16]): ameliorated | increase in hind paw thermal latency (Akita mice [16]): prevented | extracellular Aβ toxicity (HT22 cells): prevents extracellular Aβ toxicity | increase of Nrf2 half-life (Nrf2): ~ 2 fold | protection of cells (PC12/Htt^Q103 cells): equal or greater amount of protection | most effective dose at reducing immobility time [17]: 20 mg/kg bw | leukocytes infiltrating the brain (tMCAO in mice [18]; 50 mg/kg bw, day 3, mean ± SD, placebo 179,252 ± 23,389): 93,045 ± 46,963 cells per ischemic hemisphere | numbers of microglia in the ipsilesional hemisphere (tMCAO in mice [18]; 50 mg/kg bw, day 3 after stroke, vs placebo): no significant differences | intracellular TNF-α production in macrophages (tMCAO in mice [18]; day 3, placebo 24.6%): 2.9% | TNF-α–producing microglia (tMCAO in mice [18]; day 3, placebo 30.4%): 17.3% | TNF-α–producing microglia (tMCAO in mice [18]; day 7, placebo 31.9%): 26.8% | intracellular TNF-α production in macrophages (tMCAO in mice [18]; day 7, placebo 33.8%): 13.9% | TNF-α production in macrophages and DCs isolated from spleen (tMCAO in mice [18]; day 3 and day 7 post ischemia, vs placebo): did not show any differences | median life span (R6/2 mouse; 0.05% in food from ~6 weeks of age, control diet 104 days): 139 days | rotorod performance (R6/2 mouse; 0.05% in food, at 9, 11 and 13 weeks (p < 0.01)): improved | increase of median life span (R6/2 mouse; 0.05% in food, vs control diet): ~ 30% | NF-κB-dependent reporter gene expression and protein expression [19]: reduced | maintenance of GSH levels in the presence of oxidative stress (nerve cell): able to maintain GSH levels | IC50 (COX2 (Human recombinant)): > 10000 nM | body weights [20]: No significant differences | elevated blood glucose and HbA1c (Akita mice [21]; 0.05% in food (25–40 mg/kg bw daily), 6 to 24 weeks): not affected | open field test, distance traveled and time ambulatory (anxiety-related symptoms) (Akita mice [21]; 0.05% in food): restored to near normal values | weight loss (Akita mice [21]; 0.05% in food): not altered | Ames test (Ames test): negative | increase of ATF4 half-life (ATF4): ~ 2 fold | reduction of iNOS expression ([22]; 10 μM, following LPS stimulation (p<0.001)): 91% | IκB, JNK and c-Jun phosphorylation ([22]; LPS-stimulated murine microglia): significantly reduced | LPS-induced nitric oxide and TNF-α production ([22]; N9 cells, vs placebo): significant inhibition | activity of CBP/p300 [23]: suppress | IC50 (COX1 (Human platelets)): > 10000 nM | inhibition of hERG activity (hERG): no inhibition | time in the open arms (disinhibition) [24]: reversed | inhibition of cytochrome P450 3A4 activity (cytochrome P450 3A4): no inhibitory effects | Trolox equivalent antioxidant capacity (TEAC) value [25]: ~ 3 | short-term toxicity [26]: No indications of toxicity | loss of total GSH from cortex and hippocampus [27]: greatly reduce the loss of total GSH | escape latency, hidden platform day 2 [28]: indistinguishable from that of the wild type mice

COc1cc(-c2oc3cc(O)ccc3c(=O)c2O)ccc1O [geraldol, 3,4′,7-trihydroxy-3′-methoxyflavone]
activity in several biological assays [29]: as active as fisetin

COc1cc(-c2oc3cc(O)cc(O)c3c(=O)c2O)ccc1O [isorhamnetin]
differentiation of PC12 cells (neurotrophic activity) (PC12 cells): some differentiation-inducing activity

O=c1cc(-c2ccccc2)oc2cc(O)c(O)c(O)c12 [baicalein]
levels of free and conjugated flavonoid [30]: ≤ 1000 nM
